Some test systems named below: DU-145; T47D; Malme-3M; UO-31; OVCAR-4; CCRF-CEM; U-251; SW-620; M14; NCI-H226; BT-549; KM12; SNB-19; HT-29; SF-268; SF-295; SK-OV-3; IGROV-1; SN12C; A498.
Test in all cases: NCI anticancer screen, dose series, 48 h

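1) Cells in 96-well plates. 2) Compound, 48 h, 5 concentrations. 3) Linear interpolation between surrounding doses. 4) Unreached endpoint = highest concentration. Abbreviation: GI50, concentration required for 50% inhibition of growth.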 Active and inactive are the calls of the source. Cut-off read from the data, not from the text of the source: active = GI50 up to about 1.1 µM and inactive = higher.

Data on eleven compounds can be found in ChEMBL document CHEMBL1201862, “PubChem BioAssay data set” (2004).

Regarding `O=[N+]([O-])c1ccc(-n2nc3ccc4c(no[n+]4[O-])c3n2)cc1`, the GI50 was 35.4 µM (inactive) in the experiment with DU-145; > 100 µM (inactive) in the experiment on T47D; > 100 µM (inactive) with Malme-3M; 15.1 µM (inactive) in the experiment on UO-31; > 100 µM (inactive) in the experiment on OVCAR-4; > 100 µM (inactive) in the experiment with CCRF-CEM. The GI50 in the experiment on U-251, with SW-620, with M14, with NCI-H226, in the experiment on BT-549 and in the experiment with KM12 was > 100 µM (inactive) in each case. In addition, the GI50 in the experiment with SNB-19, with HT-29, in the experiment with SF-268, in the experiment on SF-295, in the experiment on SK-OV-3 and in the experiment on IGROV-1 was > 100 µM (inactive) throughout. Further, in the experiment on SN12C, the GI50 was > 100 µM (inactive).
For `O=C1OCC2=C1C(c1ccc3c(c1)OCO3)c1cc3c(cc1O2)OCO3` (configuration not stated), the GI50 with DU-145 is 1.64 µM (inactive); in the experiment on T47D it was 0.7 µM (active); with Malme-3M it was 3.1 µM (inactive); in the experiment with UO-31 it was 1.59 µM (inactive); with OVCAR-4 it was 7.94 µM (inactive); in the experiment with CCRF-CEM, 0.667 µM (active). Moreover, the GI50 in the experiment on U-251 was 0.583 µM (active); in the experiment with SW-620 it was 0.406 µM (active); in the experiment on M14, 0.369 µM (active); in the experiment on NCI-H226, 5.14 µM (inactive); with SNB-19 it was 2.1 µM (inactive); in the experiment on HT-29, 0.346 µM (active). The GI50 with SF-268 is 1.94 µM (inactive); in the experiment on SF-295 it was 3.03 µM (inactive); in the experiment with A498 it was 1.98 µM (inactive); in the experiment on SK-OV-3, 0.776 µM (active); with IGROV-1, 0.537 µM (active); with SN12C, 1.3 µM (inactive).
On to `CCOC1=NC(O)c2cccn2-c2sccc21` (configuration not stated), for which the GI50 in the experiment with DU-145, in the experiment on T47D, in the experiment with Malme-3M, in the experiment with UO-31, in the experiment on OVCAR-4 and in the experiment with U-251 was > 100 µM (inactive) in each case. The GI50 in the experiment with SW-620, with M14, in the experiment with KM12, with SNB-19, in the experiment with HT-29 and in the experiment with SF-268 was > 100 µM (inactive) throughout. The GI50 is > 100 µM (inactive) in the experiment with SF-295, 56.8 µM (inactive) in the experiment with A498, 93.3 µM (inactive) in the experiment with SK-OV-3 and > 100 µM (inactive) in the experiment on SN12C.
In the case of `NS(=O)(=O)c1cc2c(cc1Cl)NC(C(=O)c1cc(=O)c3ccc(O)cc3o1)=NS2(=O)=O`, the GI50 in the experiment on Malme-3M, in the experiment with UO-31, in the experiment on OVCAR-4, with CCRF-CEM, in the experiment with U-251 and with SW-620 was > 100 µM (inactive) in each case. The GI50 with M14, with NCI-H226, in the experiment with KM12, with SNB-19, in the experiment on HT-29 and in the experiment on SF-268 was > 100 µM (inactive) throughout. In addition, the GI50 with SF-295, in the experiment on A498, with SK-OV-3, in the experiment with IGROV-1 and in the experiment on SN12C was > 100 µM (inactive) throughout.
On to `COc1ccc(C(=O)/C=C/c2ccc(OCCCCCCCCCCOc3ccc(/C=C/C(=O)c4ccc(OC)c(OC)c4)cc3)cc2)c(OC)c1`, for which the GI50 in the experiment on DU-145, in the experiment on T47D, in the experiment with UO-31, with OVCAR-4, in the experiment with CCRF-CEM and in the experiment on U-251 was > 100 µM (inactive) in each case. The GI50 in the experiment with SW-620, with M14, in the experiment on NCI-H226, with KM12, with SNB-19 and in the experiment on HT-29 was > 100 µM (inactive) in each case. Also, the GI50 with SF-268, with SF-295, in the experiment on SK-OV-3, in the experiment with IGROV-1 and in the experiment with SN12C was > 100 µM (inactive) throughout.
With `COc1ccc(Oc2nc3ccc(C(F)(F)F)cc3nc2-c2ccccc2)cc1`, the GI50 in the experiment with DU-145 was > 100 µM (inactive); with Malme-3M, > 100 µM (inactive); in the experiment with UO-31, 1.57 µM (inactive); in the experiment with OVCAR-4, > 100 µM (inactive); with CCRF-CEM it was 98.9 µM (inactive); in the experiment with U-251, > 100 µM (inactive). Besides, the GI50 in the experiment with SW-620 was > 100 µM (inactive); in the experiment with NCI-H226, > 100 µM (inactive); with BT-549, 0.361 µM (active); in the experiment on KM12 it was > 100 µM (inactive); in the experiment with SNB-19, > 100 µM (inactive); in the experiment with HT-29 it was 54.3 µM (inactive). In addition, the GI50 in the experiment with SF-268, in the experiment with SF-295, in the experiment with A498, in the experiment with SK-OV-3, in the experiment on IGROV-1 and in the experiment with SN12C was > 100 µM (inactive) in each case.
`O=C1Oc2cc3c(c4cccc1c24)O[C@H](c1ccccc1)[C@@H](c1ccccc1)[C@@H]3c1ccc(Cl)cc1`: the GI50 in the experiment on DU-145 is > 100 µM (inactive); in the experiment with T47D, 58.6 µM (inactive); with Malme-3M, 37.3 µM (inactive); in the experiment on OVCAR-4 it was 82 µM (inactive); with CCRF-CEM, 49 µM (inactive); with U-251, 19.6 µM (inactive). The GI50 with SW-620 was > 100 µM (inactive); in the experiment with M14 it was 40.1 µM (inactive); in the experiment with NCI-H226, 76 µM (inactive); with KM12, > 100 µM (inactive); in the experiment with SNB-19, 29.4 µM (inactive); with HT-29, > 100 µM (inactive). Besides, the GI50 was 31.9 µM (inactive) in the experiment on SF-268; 42.7 µM (inactive) in the experiment with SF-295; 45.2 µM (inactive) in the experiment on SK-OV-3; 22.8 µM (inactive) in the experiment on IGROV-1; 79.4 µM (inactive) with SN12C.
For the compound `Fc1ccc(Oc2nc3ccc(C(F)(F)F)cc3nc2-c2ccccc2)cc1`, the GI50 with DU-145 is > 100 µM (inactive); with T47D it was 99.3 µM (inactive); with Malme-3M, 38 µM (inactive); in the experiment on UO-31 it was 44.3 µM (inactive); in the experiment on OVCAR-4 it was 60.5 µM (inactive); in the experiment with CCRF-CEM, > 10 µM (inactive). Further, the GI50 is > 10 µM (inactive) in the experiment with SW-620; 50.4 µM (inactive) with M14; > 100 µM (inactive) in the experiment with BT-549; > 100 µM (inactive) in the experiment with KM12; 87.9 µM (inactive) in the experiment with SNB-19; 32.1 µM (inactive) with HT-29. Further, the GI50 was > 100 µM (inactive) in the experiment on SF-268; 37.7 µM (inactive) in the experiment on SF-295; 81.5 µM (inactive) in the experiment on SK-OV-3; > 100 µM (inactive) with IGROV-1; > 100 µM (inactive) in the experiment on SN12C.
As for `Nc1ccc(-c2nc3ccc(Cc4ccc5nc(-c6ccc(N)cc6)oc5c4)cc3o2)cc1`, the GI50 is > 100 µM (inactive) in the experiment on DU-145; 40 µM (inactive) in the experiment on Malme-3M; > 100 µM (inactive) in the experiment on UO-31; > 100 µM (inactive) in the experiment on OVCAR-4; > 100 µM (inactive) in the experiment with CCRF-CEM; > 100 µM (inactive) in the experiment on U-251. Also, the GI50 with SW-620 is > 100 µM (inactive); in the experiment with M14, 49.9 µM (inactive); with NCI-H226 it was > 100 µM (inactive); with KM12, > 100 µM (inactive); in the experiment on SNB-19, > 100 µM (inactive); with HT-29, > 100 µM (inactive). Also, the GI50 in the experiment on SF-268, in the experiment on SF-295, with A498, in the experiment on SK-OV-3 and with SN12C was > 100 µM (inactive) in each case.
Take `O=[N+]([O-])c1ccc(/C=C(/c2ccc([N+](=O)[O-])o2)S(=O)(=O)c2ccccc2)cc1`: the GI50 in the experiment on DU-145 was 35.5 µM (inactive); in the experiment on T47D it was > 100 µM (inactive); in the experiment with Malme-3M it was 25.2 µM (inactive); in the experiment with UO-31, > 100 µM (inactive); in the experiment on OVCAR-4, 57 µM (inactive); in the experiment with U-251, 73.5 µM (inactive). For the same compound, the GI50 with SW-620 was 52 µM (inactive); in the experiment with M14 it was 56.2 µM (inactive); with NCI-H226 it was 13.4 µM (inactive); in the experiment with BT-549, 36.1 µM (inactive); in the experiment with KM12, 41.1 µM (inactive); with SNB-19 it was 73.5 µM (inactive). For the same compound, the GI50 in the experiment on HT-29 was 41.1 µM (inactive); in the experiment on SF-268, 95.9 µM (inactive); with SF-295 it was > 100 µM (inactive); with SK-OV-3, > 100 µM (inactive); in the experiment on IGROV-1, 75.5 µM (inactive).
`Nc1ccc(-c2nc3ccc(F)cc3s2)cc1Cl`: the GI50 was > 100 µM (inactive) in the experiment with DU-145; > 100 µM (inactive) in the experiment on Malme-3M; > 100 µM (inactive) with UO-31; 0.0174 µM (active) in the experiment on OVCAR-4; 5.57 µM (inactive) with CCRF-CEM; > 65.5 µM (inactive) with U-251. In addition, the GI50 in the experiment with SW-620 is > 100 µM (inactive); in the experiment on M14, > 100 µM (inactive); in the experiment on NCI-H226 it was 14.1 µM (inactive); with BT-549, > 70.6 µM (inactive); with KM12, > 100 µM (inactive); in the experiment with SNB-19 it was > 62.2 µM (inactive). Further, the GI50 was 52.7 µM (inactive) with HT-29; 35.3 µM (inactive) in the experiment on SF-268; > 47.1 µM (inactive) with SF-295; 0.402 µM (active) in the experiment on A498; > 100 µM (inactive) in the experiment with SK-OV-3; < 0.01 µM (active) in the experiment with IGROV-1. In the experiment on SN12C, the GI50 was > 100 µM (inactive).
